Laboratory results: article PMC8769378, “Underlining the Importance of Peripheral Protic Functional Groups to Enhance the Proton Exchange of Gd-Based MRI Contrast Agents” (Inorganic Chemistry, 2021)

How the values were obtained:
[1] = Acid-assisted dissociation kinetics of Gd^III complexes followed by ^1H NMR relaxometry
From the text: In order to investigate the kinetic inertness of the Gd^III complex, the dissociation reactions of GdL2 were followed by ^1H NMR relaxometry (21 MHz and 298 K) in the presence of large acid excess ([HCl] = 0.01–1.0 M) to guarantee the pseudo-first-order kinetic conditions.
The kinetic inertness of the GdL2 was characterized by the rates of the dissociation reactions taking place in 0.01–1.0 M HCl solution. The dissociation reactions of the GdL2 were followed by measuring the longitudinal relaxation time of H2O protons (T1) with a Stelar relaxometer connected to a Bruker WP80 NMR electromagnet adapted to variable-field measurements (15–80 MHz proton Larmor frequency). The temperature was controlled with a Stelar VTC-91 airflow heater equipped with a calibrated copper–constantan thermocouple (uncertainty of ±0.1 °C). Measures were carried out at 21 MHz and 25 °C. The longitudinal relaxation time (T1) was measured with the “inversion recovery” method (180° – τ – 90°) by using 16 different τ values with a typical 90° pulse width of 6.5 μs, 4 scans. The measurements were performed with a 1 mM solution of the GdL2 complex. The relaxivity values were given as r1 = 1/T1p + 1/T1w where T1p and T1w are the relaxation times of the bulk water protons in the presence and absence of GdL2. The pseudo-first-order rate constants (kd) were calculated by fitting the relaxation rate (r1 = 1/T1p) data to eq 4. […] 4 where rr and rv are the relaxivity values of the reactants and the product (Gd^3+: r1p = 12.85 (2) mM^–1 s^–1, 21 MHz, 25 °C) and rt is the measured relaxivity at reaction time t. The temperature was maintained at 25 °C, and the ionic strength of the solutions was kept constant at [H^+] ≤ 0.15 M, [HCl] + [NaCl] = 0.15 M. The calculation of the kinetic parameters was performed by the fitting of the absorbance–time and relaxation rate–time data pairs with the Micromath Scientist computer program (version 2.0, Salt Lake City, UT).
Kinetic inertness of GdL2
In order to investigate the kinetic inertness of GdL2, the dissociation reactions of GdL2 were followed
by 1H-NMR relaxometry in the presence of large acid excess ([HCl]= 0.01 – 1.0 M) to guarantee the
pseudo-first-order kinetic conditions. The R1obs values as a function of time for the dissociation
In the presence of HCl excess, the dissociation of GdL2 can be treated as a pseudo-first-order process
and the rate of the reaction can be expressed by Eq. (S7)
where kd is a pseudo-first-order rate constant, [GdL]t and [GdL]tot are the concentrations of the GdL
species at time t and the total concentration of the complex, respectively. The rates of the dissociation
reactions were determined at different concentrations of HCl ([HCl]=0.01 – 1.0 M).
The proton assisted dissociation
of GdL2 might occur by the equilibrium formation of a protonated *Gd(H2L2) intermediate (Eq.
(S8)), which dissociates spontaneously (Eq. (S9)).
Gd(HL2) + H Gd(H2L2) (S8)

[2] = Longitudinal relaxivity r1 and relaxivity vs pH profiles; format: physicochemical
Protocol: The longitudinal relaxivity values (r1) for GdL1 and GdL2, at 20 MHz (0.47 T), 298 K, and pH 7.4, are 4.7 and 5.1 mM^–1 s^–1, respectively. These are typical values of the clinical MRI contrast agents, i.e., low-molecular-weight q = 1 Gd^III chelates that tumble rapidly in solution.[1],[2] In particular, these values compare well with the r1 reported for GdHPDO3A[24] and other HPDO3A-like complexes such as GdHPDO3MA[25] or the series of Gd-hydroxypropylamide-DO3A (HPADO3A, Scheme 1)[7] complexes measured at the same experimental conditions.
At pH >3, the r1 values of GdL2 decrease with the increase of pH from 6.6 mM^–1 s^–1 to reach a plateau of 5.1 mM^–1 s^–1 around pH = 7.5. A further increase of the pH results in the slight increase of r1 reaching a maximum around pH = 9.5. Finally, at pH >9.5, another small decrease in r1 is observed. On the other hand, in the case of GdL1, the r1 values are independent from the pH in the range 4.0–7.5, whereas at pH >8.0, r1 increases up to 5.2 mM^–1 s^–1. The r1 values of GdL1 were measured in the pH range 4–10 in order to avoid the hydrolysis of the methyl ester. […] Then, the overall relaxivity, r1, is given by eq 1: [drawing 1] 1 where r1^is, r1^os, and r1^pr are the relaxivity components due to the inner and outersphere water molecules and the −OH group, respectively. r1^pr can be expressed as follows:[26]−[28] [drawing 2] 2
Proton relaxation measurements (1/T1) and the resulting 1/T1 NMRD profiles were measured on a fast-field cycling (FFC) Stelar SmarTracer relaxometer over a continuum of magnetic field strengths from 0.000 24 to 0.25 T (corresponding to 0.01–10 MHz proton Larmor frequencies). The relaxometer operates under computer control with an absolute uncertainty in 1/T1 of ±1%. […] Furthermore, the real temperature inside the probe head was additionally monitored by a Fluke 52 k/j digital thermometer (Fluke, Zürich, Switzerland). The gadolinium concentration was determined by measuring the bulk magnetic susceptibility shifts of the t-BuOH ^1H NMR signal. Additional data in the 20–120 MHz frequency range were obtained with a high field relaxometer (Stelar) equipped with the HTS-110 3T metrology cryogen-free superconducting magnet. […] The pH-dependent relaxivity measurements of GdL1 and GdL2 complexes were carried out by direct titration of the samples (GdL2, 3.0 < pH < 12.5; GdL1, 4 < pH < 10). The pH was adjusted by the stepwise addition of concentrated NaOH or HCl solution. Calculations were performed with the computer program Micromath Scientist, version 2.0 (Salt Lake City, UT).

SMILES: O=C([O-])CN1CCN(CC(=O)[O-])CCN(CC(O)C(=O)O)CCN(CC(=O)[O-])CC1.[Gd+3] (stereo not shown) [GdL2]
- kd at pH = 7.4 ([1]; calculated from acid-assisted dissociation only, pH = 7.4, 298 K, comparators from literature constants): 9.01 × 10^–12 s^–1
- k1 (acid-catalyzed dissociation rate constant) ([1]; k1 = kGdH2L × K^HGd(HL), [HCl] = 0.01–1.0 M, 298 K): (2.3 ± 0.1) × 10^–4 M^–1 s^–1
- K^HGdL ([1]; protonation constant of GdHL from kinetic data, 298 K): 0.5 ± 0.1 (GdHL) M^–1
- longitudinal relaxivity r1 ([2]; 20 MHz (0.47 T), 298 K, pH 7.4): 5.1 mM^–1 s^–1
- r1 plateau ([2]; around pH = 7.5, 21 MHz, 298 K, 0.15 M NaCl): 5.1 mM^–1 s^–1
- relaxivity increase by acid-catalyzed proton exchange ([2]; pH <6): ca. 30%
- r1 at the acidic start of the pH profile ([2]; pH about 3, 21 MHz, 298 K, 0.15 M NaCl): 6.6 mM^–1 s^–1
